The values below are quoted from earlier work in patent US20240252348A1, “EVA SEGMENTED INTRAVAGINAL RINGS CONTAINING PROGESTERONE” (priority 2019, published 2024).

For the series, the system named is women with a short cervix. The following applies: singleton pregnant women with short cervical length (SCL).

On to `CCCCCC(=O)O[C@]1(C(C)=O)CC[C@H]2[C@@H]3CCC4=CC(=O)CC[C@]4(C)[C@H]3CC[C@@]21C` [Makena, 17-alpha hydroxyprogesterone caproate], for which the “prevention of preterm birth” value was “ineffective”.
